In patent US20110028566A1, “COMPOSITIONS AND PRODUCTS CONTAINING CYCLOALIPHATIC DIOL ANTIMICROBIAL AGENTS AND METHODS OF USING THE COMPOSITIONS AND PRODUCTS” (EASTMAN CHEMICAL COMPANY, priority 2009, published 2011):

Key:
Test in all cases: Microbial challenge testing in BPW
Type in all cases: cell-based
Escherichia coli = settings: 0.2%
Method: (§1) The microorganisms used in challenge tests are given in Table 3, designated as either ATCC (American Type Culture Collection) or wild type. These wild type organisms were problematic organisms previously isolated from chemical products. In the description for each organism, the bacteria are indicated as either GN (Gram negative) or GP (Gram positive).
(§2) All of the microorganisms were grown in Tryptose Soy Broth (TSB), DIFCO™ available from Becton, Dickinson and Company, containing 1% dextrose. Aspergillus niger and Candida albicans were incubated at 22° C.±2° C. for at least 96 hours. All bacteria were incubated at 35° C.±2° C. in a humidified incubator for at least 96 hours.
(§3) The following procedure was followed to determine the amount of each challenge material (inoculum broth) required to produce a 10^8 cfu/mL challenge, which is equivalent to a final test-sample microbial concentration of 10^5 to 10^6 cfu (colony-forming units)/mL.
(§4) Using a sterile serological pipette, 1 mL of the growth from each TSB culture was transferred into tubes containing 9 mL phosphate buffer (pH 7.2) and mixed thoroughly. This process was repeated to make serial 1:10 dilutions. Then 0.1 mL of each sample and dilution was inoculated onto agar plates to produce the equivalent of a further 1:10 dilution. C. albicans and A. niger were inoculated onto SDA and bacteria were inoculated onto Plate Count Agar (PCA), DIFCO™ available from Becton, Dickinson and Company. The 0.1 mL aliquots were evenly distributed on the plates using the spread-plate technique. The spread-plate technique is performed by spreading the aliquot over the entire plate surface using a sterile spreading rod while rotating the plate with a rotary auto-plater. After the inoculum was absorbed completely, each plate was inverted and incubated (fungi at 22° C.±2° C. and bacteria at 35° C.±2° C.).
(§5) After incubation for at least 48 hours, colonies that had developed on the agar plates were counted and recorded with the corresponding dilution. If counting had to be delayed temporarily, plates were refrigerated, preferably no more than 24 hours, until they could be counted. The number of cfu/mL was determined by multiplying the count by the dilution factor for that particular plate.
(§6) Turbidity in Nepholemetric Turbidity Units (NTU) was measured for each serial dilution using the HF-Micro 100 Model Turbidimeter. For each microorganism, the plate counts were compared to the turbidity readings.
(§7) Control substrates (“broth alone”) were prepared for each microorganism separately in triplicate by adding 13.5 mL of BPW (pH 7.0) containing 1% (w/v) dextrose to each 20-mL glass tube; then adding 1.5 mL challenge material to produce a final concentration at time zero of 10^5 to 10^6 cfu/mL and a total volume of 15 mL.
(§8) Test sample substrates were prepared containing each test material (1,4-CHDM, etc) or combination of test materials at the concentrations shown in Tables 5 and 6. Sample substrates were prepared in triplicate, except those substrates containing PE or CG which were prepared in duplicate. Substrates were prepared by adding BPW containing 1% (w/v) dextrose to each 20-mL glass tube, then adding the test material in the amount appropriate to achieve the desired weight/volume percent (g/100 mL) and to obtain a total volume of BPW with dextrose and test material of 13.5 mL. Then 1.5 mL challenge material was added to produce a final concentration at time zero of 10^5 to 10^6 cfu/mL of the respective organism and a total test sample substrate volume of 15 mL.
(§9) After mixing, all challenged substrates were incubated at 35° C.±2° C. for 14 days and then at ambient room temperature.

Proteus vulgaris = tested on: Proteus vulgaris
Method: as §1, §2, §3, §4, §5, §6, §7, §8, §9

Pseudomonas aeruginosa = tested on: Pseudomonas aeruginosa
Method: as §1, §2, §3, §4, §5, §6, §7, §8, §9

Staphylococcus aureus = tested on: Staphylococcus aureus
Method: as §1, §2, §3, §4, §5, §6, §7, §8, §9

[1] = tested on: Staphylococcus epidermidis
Method: as §1, §2, §3, §4, §5, §6, §7, §8, §9

Streptococcus mutans = tested on: Streptococcus mutans
Method: as §1, §2, §3, §4, §5, §6, §7, §8, §9

## O=c1[nH]sc2ccccc12 [BIT, 1,2-benzisothiazolin-3-one]
Escherichia coli; 3 days incubation
  Grade code E. coli: 1 (1 to 51 colonies counted (thus 10 to 510 cfu/mL))
Escherichia coli; 14 days incubation
  Grade code E. coli: 0 (No growth detected or <1 colony (thus <10 cfu/mL))
Escherichia coli; 30 days incubation
  Grade code E. coli: 0 (No growth detected or <1 colony (thus <10 cfu/mL))
Proteus vulgaris; 0.05%, 3 days incubation
  Grade code P. vulqaris: 4 (1001 to 10,000 colonies (thus 10,000 cfu/mL to 100,000 cfu/mL))
Proteus vulgaris; 0.05%, 13 days incubation
  Grade code P. vulqaris: 4 (1001 to 10,000 colonies (thus 10,000 cfu/mL to 100,000 cfu/mL))
Proteus vulgaris; 0.05%, 30 days incubation
  Grade code P. vulqaris: 4 (1001 to 10,000 colonies (thus 10,000 cfu/mL to 100,000 cfu/mL))
Proteus vulgaris; 0.2%, 3 days incubation
  Grade code P. vulqaris: 4 (1001 to 10,000 colonies (thus 10,000 cfu/mL to 100,000 cfu/mL))
Proteus vulgaris; 0.2%, 13 days incubation
  Grade code P. vulqaris: 2 (52 to 100 colonies counted (thus 520 to 1000 cfu/mL))
Proteus vulgaris; 0.2%, 30 days incubation
  Grade code P. vulqaris: 0 (No growth detected or <1 colony (thus <10 cfu/mL))
Pseudomonas aeruginosa; 0.05%, 3 days incubation
  Grade code P. aeruginosa: 4 (1001 to 10,000 colonies (thus 10,000 cfu/mL to 100,000 cfu/mL))
Pseudomonas aeruginosa; 0.05%, 13 days incubation
  Grade code P. aeruginosa: 4 (1001 to 10,000 colonies (thus 10,000 cfu/mL to 100,000 cfu/mL))
Pseudomonas aeruginosa; 0.05%, 30 days incubation
  Grade code P. aeruginosa: 4 (1001 to 10,000 colonies (thus 10,000 cfu/mL to 100,000 cfu/mL))
Pseudomonas aeruginosa; 0.2%, 3 days incubation
  Grade code P. aeruginosa: 3 (101 to 1000 colonies (thus 1000 to 10,000 cfu/mL))
Pseudomonas aeruginosa; 0.2%, 13 days incubation
  Grade code P. aeruginosa: 4 (1001 to 10,000 colonies (thus 10,000 cfu/mL to 100,000 cfu/mL))
Pseudomonas aeruginosa; 0.2%, 30 days incubation
  Grade code P. aeruginosa: 4 (1001 to 10,000 colonies (thus 10,000 cfu/mL to 100,000 cfu/mL))
Staphylococcus aureus; 0.05%, 3 days incubation
  Grade code S. aureus: 4 (1001 to 10,000 colonies (thus 10,000 cfu/mL to 100,000 cfu/mL))
Staphylococcus aureus; 0.05%, 14 days incubation
  Grade code S. aureus: 4 (1001 to 10,000 colonies (thus 10,000 cfu/mL to 100,000 cfu/mL))
Staphylococcus aureus; 0.05%, 30 days incubation
  Grade code S. aureus: 4 (1001 to 10,000 colonies (thus 10,000 cfu/mL to 100,000 cfu/mL))
Staphylococcus aureus; 0.2%, 3 days incubation
  Grade code S. aureus: 4 (1001 to 10,000 colonies (thus 10,000 cfu/mL to 100,000 cfu/mL))
Staphylococcus aureus; 0.2%, 14 days incubation
  Grade code S. aureus: 3 (101 to 1000 colonies (thus 1000 to 10,000 cfu/mL))
Staphylococcus aureus; 0.2%, 30 days incubation
  Grade code S. aureus: 3 (101 to 1000 colonies (thus 1000 to 10,000 cfu/mL))
[1]; 0.05%, 3 days incubation
  Grade code S. epidermidis: 4 (1001 to 10,000 colonies (thus 10,000 cfu/mL to 100,000 cfu/mL))
[1]; 0.05%, 13 days incubation
  Grade code S. epidermidis: 4 (1001 to 10,000 colonies (thus 10,000 cfu/mL to 100,000 cfu/mL))
[1]; 0.05%, 30 days incubation
  Grade code S. epidermidis: 4 (1001 to 10,000 colonies (thus 10,000 cfu/mL to 100,000 cfu/mL))
[1]; 0.2%, 3 days incubation
  Grade code S. epidermidis: 4 (1001 to 10,000 colonies (thus 10,000 cfu/mL to 100,000 cfu/mL))
[1]; 0.2%, 13 days incubation
  Grade code S. epidermidis: 2 (52 to 100 colonies counted (thus 520 to 1000 cfu/mL))
[1]; 0.2%, 30 days incubation
  Grade code S. epidermidis: 2 (52 to 100 colonies counted (thus 520 to 1000 cfu/mL))
Streptococcus mutans; 0.05%, 3 days incubation
  Grade code S. mutans: 1.7
Streptococcus mutans; 0.05%, 13 days incubation
  Grade code S. mutans: 0 (No growth detected or <1 colony (thus <10 cfu/mL))
Streptococcus mutans; 0.05%, 30 days incubation
  Grade code S. mutans: 0 (No growth detected or <1 colony (thus <10 cfu/mL))
Streptococcus mutans; 0.2%, 3 days incubation
  Grade code S. mutans: 0 (No growth detected or <1 colony (thus <10 cfu/mL))
Streptococcus mutans; 0.2%, 13 days incubation
  Grade code S. mutans: 0 (No growth detected or <1 colony (thus <10 cfu/mL))
Streptococcus mutans; 0.2%, 30 days incubation
  Grade code S. mutans: 0 (No growth detected or <1 colony (thus <10 cfu/mL))
Streptococcus mutans; BIT alone
  Effectiveness against S. mutans (in words): highly effective
